Reference: patent US20100227853A1, “INHIBITORS OF CYCLIC AMP PHOSPHODIESTERASES” (Trustees of Boston College, priority 2008, published 2010)

Tests used:
PDE4B3 = biological target: T1, PDE4B3 (Mus musculus, UniProt Q8VBU5); experiment: 5FOA growth assay in fission yeast strain expressing PDE4B3; format: cell-based, Murine; conditions: 20 uM
T1 construct: targets used in the assays are full-length proteins (as opposed to simply the catalytic domain); expressed in transfected cells; host or cells: Schizosaccharomyces pombe, PDE gene integrated in place of cgs2
T1 sequence (Q8VBU5 1-721): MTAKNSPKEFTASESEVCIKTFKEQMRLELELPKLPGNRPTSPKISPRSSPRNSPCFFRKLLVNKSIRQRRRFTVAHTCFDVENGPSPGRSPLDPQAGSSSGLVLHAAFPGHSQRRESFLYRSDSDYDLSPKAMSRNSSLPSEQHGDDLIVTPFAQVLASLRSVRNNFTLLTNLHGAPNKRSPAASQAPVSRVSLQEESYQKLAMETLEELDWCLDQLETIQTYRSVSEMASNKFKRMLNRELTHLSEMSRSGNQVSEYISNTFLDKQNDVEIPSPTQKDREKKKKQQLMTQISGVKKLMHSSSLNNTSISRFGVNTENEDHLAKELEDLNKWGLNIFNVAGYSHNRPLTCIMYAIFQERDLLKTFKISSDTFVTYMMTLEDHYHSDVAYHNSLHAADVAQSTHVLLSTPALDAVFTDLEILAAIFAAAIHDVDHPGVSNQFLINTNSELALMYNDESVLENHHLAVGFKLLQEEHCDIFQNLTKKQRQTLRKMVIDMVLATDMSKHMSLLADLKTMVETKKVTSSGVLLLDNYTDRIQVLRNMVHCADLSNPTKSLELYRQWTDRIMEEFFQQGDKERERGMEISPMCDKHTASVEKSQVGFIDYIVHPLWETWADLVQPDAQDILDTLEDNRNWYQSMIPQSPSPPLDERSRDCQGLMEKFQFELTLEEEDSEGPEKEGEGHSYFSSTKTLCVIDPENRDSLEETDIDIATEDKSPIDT
Outline: (§1)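 Fission yeast strains carrying mouse PDE4A1 or PDE4B3 and an fbp1-ura4 reporter were pregrown in EMM with 0.5–2.5 mM cAMP, then seeded at 0.5–4×10^5 cells/ml in 5FOA medium with compound. Growth was read as OD600 after 48 h at 30° C; composite Z scores were derived.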

[1] = system: PDE4A, PDE4B, PDE4D, PDE7A, PDE7B, PDE8A, PDE3A; experiment: Summary of PDE inhibitor profile; design: key to PDE inhibitor profile (Table 17): (1): Strong PDE4A, PDE4B inhibitor; (2): Strong PDE4A inhibitor; (3): Strong PDE4B, moderate PDE4A inhibitor; (4): Moderate PDE4A, PDE4B inhibitor; (5): Moderate PDE4B inhibitor; key to inhibitor class, Table 16: (1): Weak PDE7A inhibitor; (2): Strong PDE7A inhibitor; (3): Lillte/no activity under conditions used; (4): Weak PDE4A inhibitor; conditions: for PDE inhibitor profile (Table 17): overall classification, Table 17 footnotes
PDE7A [2] = biological target: T2, PDE7A (Homo sapiens, UniProt Q13946); experiment: 5FOA growth assay in fission yeast strain expressing PDE7A; format: cell-based; design: targets used in the assays are full-length proteins (as opposed to simply the catalytic domain); expressed in transfected cells; host or cells: Schizosaccharomyces pombe, PDE gene integrated in place of cgs2; conditions: unit not given
T2 sequence (Q13946 whole entry, the tested form may be a part): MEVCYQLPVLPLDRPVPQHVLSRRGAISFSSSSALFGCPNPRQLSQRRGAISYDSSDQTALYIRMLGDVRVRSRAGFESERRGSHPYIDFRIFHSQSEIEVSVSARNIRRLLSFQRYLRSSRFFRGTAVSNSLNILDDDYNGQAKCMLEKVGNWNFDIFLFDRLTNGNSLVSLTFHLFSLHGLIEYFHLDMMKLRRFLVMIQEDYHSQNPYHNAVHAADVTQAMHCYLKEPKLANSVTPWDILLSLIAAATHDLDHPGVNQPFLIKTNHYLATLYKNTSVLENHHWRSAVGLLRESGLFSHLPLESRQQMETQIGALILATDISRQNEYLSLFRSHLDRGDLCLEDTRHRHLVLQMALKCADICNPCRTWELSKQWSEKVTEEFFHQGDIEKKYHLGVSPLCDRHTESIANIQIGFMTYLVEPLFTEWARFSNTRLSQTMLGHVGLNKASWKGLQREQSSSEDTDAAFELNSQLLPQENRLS
Experimental: PDE inhibition allows growth in 5FOA medium as measured by optical density after 48 hours incubation at 30° C. Compound BC12 and six structural analogs were tested for growth stimulation.
Cells were pregrown in EMM medium [MP Biomedicals (Solon, Ohio), 3% glucose, filter-sterilized to avoid carmelization, which would introduce variability into the optical density of the medium] containing from 0 mM to 2.5 mM cAMP (or either 0.5 mM or 1.0 mM cGMP). This was to repress expression of the fbp1-ura4 reporter prior to exposure of cells to 5FOA medium. Cells were grown at 30° C. to exponential phase (approximately 10^7 cells/ml). Cells were collected by centrifugation and resuspended in 5FOA medium, and 25 μl were transferred to 384-well microtiter dishes (untreated, with flat clear bottoms) that had been pre-filled with 25 μl 5FOA medium and pre-pinned with 100 nl of compounds (stock solutions were generally 10 mM). Starting cell concentrations ranged from 0.5×10^5 to 4×10^5 cells/ml depending on the screening strain. […] Other positive control dishes contained 5 mM cAMP in the 5FOA medium for PDEs that lack appropriate control compounds. Cultures were grown for 48 hours at 30° C., sealed in an airtight container with moist paper towels to prevent evaporation. Optical densities (OD600) of cultures were measured using a microplate reader. Bioinformatic analysis of the results to determine composite Z scores was performed as previously described (1, 3).

PDE4A = PDE4A (Homo sapiens, UniProt P27815); experiment: in vitro enzyme assay PDE4A (Table 7); format: biochemical; conditions: 2 micromolar compound; read-out: percent of PDE activity present, PDE4A
PDE4A, sequence (P27815 whole entry, species assumed): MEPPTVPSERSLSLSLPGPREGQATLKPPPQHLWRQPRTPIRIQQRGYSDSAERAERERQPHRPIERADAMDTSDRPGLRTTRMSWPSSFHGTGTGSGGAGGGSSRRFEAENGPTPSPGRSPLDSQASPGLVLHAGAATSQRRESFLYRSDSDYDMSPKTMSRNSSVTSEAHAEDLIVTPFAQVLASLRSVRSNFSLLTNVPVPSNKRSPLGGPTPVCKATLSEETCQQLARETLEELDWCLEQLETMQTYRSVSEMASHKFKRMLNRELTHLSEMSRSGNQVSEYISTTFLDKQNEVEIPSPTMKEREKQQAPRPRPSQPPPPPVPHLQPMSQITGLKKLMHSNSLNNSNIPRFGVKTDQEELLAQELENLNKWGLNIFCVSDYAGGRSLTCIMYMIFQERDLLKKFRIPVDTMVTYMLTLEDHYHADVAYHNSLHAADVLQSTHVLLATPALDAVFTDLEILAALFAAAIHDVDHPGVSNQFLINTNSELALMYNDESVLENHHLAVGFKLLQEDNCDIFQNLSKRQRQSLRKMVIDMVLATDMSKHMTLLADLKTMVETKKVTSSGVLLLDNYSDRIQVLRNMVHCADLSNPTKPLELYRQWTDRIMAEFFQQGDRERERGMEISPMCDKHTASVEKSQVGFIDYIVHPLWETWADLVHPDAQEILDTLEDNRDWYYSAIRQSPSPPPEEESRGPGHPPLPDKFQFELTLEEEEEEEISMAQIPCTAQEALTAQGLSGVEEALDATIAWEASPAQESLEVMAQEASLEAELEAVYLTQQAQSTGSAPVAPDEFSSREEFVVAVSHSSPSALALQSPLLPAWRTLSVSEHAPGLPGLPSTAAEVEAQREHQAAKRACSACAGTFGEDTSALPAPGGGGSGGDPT

PDE4B = PDE4B (Homo sapiens, UniProt Q07343); experiment: in vitro enzyme assay PDE4B (Table 7); format: biochemical; conditions: 2 micromolar compound; read-out: percent of PDE activity present, PDE4B
PDE4B, sequence (Q07343 whole entry, species assumed): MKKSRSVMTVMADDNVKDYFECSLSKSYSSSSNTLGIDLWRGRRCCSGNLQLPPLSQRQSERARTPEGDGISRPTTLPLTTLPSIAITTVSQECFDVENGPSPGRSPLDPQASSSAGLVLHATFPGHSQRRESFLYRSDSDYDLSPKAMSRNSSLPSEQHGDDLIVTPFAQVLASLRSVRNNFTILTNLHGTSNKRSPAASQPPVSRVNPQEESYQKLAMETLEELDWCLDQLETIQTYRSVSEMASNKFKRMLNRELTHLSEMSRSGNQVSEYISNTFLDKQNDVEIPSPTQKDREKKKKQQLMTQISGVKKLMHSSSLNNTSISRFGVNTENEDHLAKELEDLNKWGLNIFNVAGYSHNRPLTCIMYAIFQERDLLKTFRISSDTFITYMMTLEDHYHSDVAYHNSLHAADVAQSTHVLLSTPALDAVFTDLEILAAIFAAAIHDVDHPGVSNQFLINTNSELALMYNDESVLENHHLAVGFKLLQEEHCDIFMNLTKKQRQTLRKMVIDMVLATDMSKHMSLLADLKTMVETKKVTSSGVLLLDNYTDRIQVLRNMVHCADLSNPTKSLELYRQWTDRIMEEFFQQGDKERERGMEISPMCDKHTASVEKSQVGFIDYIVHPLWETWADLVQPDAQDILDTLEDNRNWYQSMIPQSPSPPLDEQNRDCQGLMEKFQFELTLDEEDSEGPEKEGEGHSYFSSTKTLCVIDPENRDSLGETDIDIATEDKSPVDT

PDE4D = PDE4D (Homo sapiens, UniProt Q08499); experiment: in vitro enzyme assay PDE4D (Table 7); format: biochemical; conditions: 2 micromolar compound; read-out: percent of PDE activity present, PDE4D
PDE4D, sequence (Q08499 whole entry): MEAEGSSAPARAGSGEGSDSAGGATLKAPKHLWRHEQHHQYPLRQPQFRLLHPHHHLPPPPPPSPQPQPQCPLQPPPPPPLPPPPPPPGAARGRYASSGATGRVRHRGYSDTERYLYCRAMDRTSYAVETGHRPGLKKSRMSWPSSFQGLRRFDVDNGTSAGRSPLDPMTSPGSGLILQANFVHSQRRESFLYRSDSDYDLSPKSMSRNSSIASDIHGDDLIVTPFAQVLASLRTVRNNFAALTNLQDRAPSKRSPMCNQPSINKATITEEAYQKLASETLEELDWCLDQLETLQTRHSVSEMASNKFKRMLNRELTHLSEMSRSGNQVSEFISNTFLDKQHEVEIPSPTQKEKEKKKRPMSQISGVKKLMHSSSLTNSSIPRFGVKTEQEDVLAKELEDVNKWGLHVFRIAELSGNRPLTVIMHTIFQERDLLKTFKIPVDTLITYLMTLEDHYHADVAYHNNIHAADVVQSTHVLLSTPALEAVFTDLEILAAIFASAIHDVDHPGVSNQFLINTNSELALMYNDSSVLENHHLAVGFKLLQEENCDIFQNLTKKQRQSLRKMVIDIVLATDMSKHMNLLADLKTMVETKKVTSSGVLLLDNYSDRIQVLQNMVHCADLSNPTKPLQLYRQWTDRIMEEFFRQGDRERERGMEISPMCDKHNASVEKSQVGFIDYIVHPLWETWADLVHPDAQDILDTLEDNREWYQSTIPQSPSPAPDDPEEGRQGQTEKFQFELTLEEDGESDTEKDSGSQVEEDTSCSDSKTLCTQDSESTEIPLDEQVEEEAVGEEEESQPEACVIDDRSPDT

PDE7A [3] = biological target: T2, PDE7A; experiment: in vitro enzyme assay PDE7A; format: biochemical; design: made in house; host or cells: E. coli; conditions: 2 micromolar compound; read-out: percent of PDE activity present, PDE7A
PDE4A1 = biological target: T3, PDE4A1 (Mus musculus, UniProt O89084); experiment: 5FOA growth assay (high throughput screen, ED50) in fission yeast strain expressing PDE4A1; format: cell-based; conditions: for 1 Assay (20 uM) 4A1: PDE 4A1; for Composite Z score, PDE4A1: high throughput 5FOA growth screen, greater than 8.53 = statistically-significant inhibitor
T3 construct: targets used in the assays are full-length proteins (as opposed to simply the catalytic domain); expressed in transfected cells; host or cells: Schizosaccharomyces pombe, PDE gene integrated in place of cgs2
T3 sequence (O89084 1-610 isoform O89084-2): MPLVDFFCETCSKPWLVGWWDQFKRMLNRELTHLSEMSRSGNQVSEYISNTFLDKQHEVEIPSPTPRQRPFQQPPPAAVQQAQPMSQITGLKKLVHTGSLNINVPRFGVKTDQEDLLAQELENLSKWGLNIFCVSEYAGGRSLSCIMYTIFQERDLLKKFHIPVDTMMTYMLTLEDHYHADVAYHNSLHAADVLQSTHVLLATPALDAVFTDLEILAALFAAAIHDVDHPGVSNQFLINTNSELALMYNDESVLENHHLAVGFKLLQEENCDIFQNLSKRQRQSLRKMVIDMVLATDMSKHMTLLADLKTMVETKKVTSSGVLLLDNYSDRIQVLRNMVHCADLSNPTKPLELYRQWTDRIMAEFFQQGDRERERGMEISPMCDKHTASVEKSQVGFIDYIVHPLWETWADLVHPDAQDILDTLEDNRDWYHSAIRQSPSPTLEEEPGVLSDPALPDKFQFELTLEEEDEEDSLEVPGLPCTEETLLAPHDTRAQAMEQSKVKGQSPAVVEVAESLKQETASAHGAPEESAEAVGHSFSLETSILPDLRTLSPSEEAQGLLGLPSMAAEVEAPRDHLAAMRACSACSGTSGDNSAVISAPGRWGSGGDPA
Outline: as §1

SMILES	remaining activity at 2 µM (PDE4A) [%]	remaining activity at 2 µM (PDE4B) [%]	remaining activity at 2 µM (PDE4D) [%]	remaining activity at 2 µM (PDE7A [3]) [%]	1 Assay (20 uM) 4A1 (PDE4A1) [ND ND ND ND]	1 Assay (20 uM) 4B3 (PDE4B3; PDE 4B3) [ND ND ND ND]	PDE inhibitor profile (Table 17) [1]	other results
N#Cc1sc2sc(C#N)c(-c3cccs3)c2c1N [Compound 30-2]	–	–	–	–	–	–	–	1 Assay (20 uM) 4B3 (PDE4B3): −0.3999 ND ND ND ND; inhibitor class, Table 16 [1]: 1441, G04 KM03473 30-2 (1); ED50, 7A (PDE7A [2]): ND ND active/plateaus ND ND
CC(C)n1c2ccccc2c2nc3ccccc3nc21 [1422, I02]	–	–	–	–	56.62	99.04	1422, I02 (1)	–
CCn1c2ccccc2c2nc3ccccc3nc21 [1422, G02]	–	–	–	–	70.89	103.69	1422, G02 (1)	–
N#Cc1sc2sc(C#N)c(-c3ccc(Cl)cc3)c2c1N [Compound 30-3]	–	–	–	–	–	–	–	1 Assay (20 uM) 4B3 (PDE4B3): 1.462 ND ND ND ND; inhibitor class, Table 16 [1]: 554, N12 KM03474 30-3 (3); ED50, 7A (PDE7A [2]): ND ND inactive ND ND
C=CCn1c2ccccc2c2nc3ccccc3nc21 [1427, P20]	–	–	–	–	31.38	103.46	1427, P20 (3)	–
Cc1nc(N2CCC(C)CC2)c2c(C)c(C(=O)Nc3c(F)cc(F)cc3Br)sc2n1 [Compound 58-5]	69	46	68	90	–	–	–	–
CC(C)Cn1c2ccccc2c2nc3ccccc3nc21 [1422, M02]	–	–	–	–	40.53	86.04	1422, M02 (2)	–

Continued, in another order:

remaining activity at 2 µM (PDE4A) [%]	remaining activity at 2 µM (PDE4B) [%]	remaining activity at 2 µM (PDE4D) [%]	remaining activity at 2 µM (PDE7A [3]) [%]	1 Assay (20 uM) 4A1 (PDE4A1) [ND ND ND ND]	1 Assay (20 uM) 4B3 (PDE4B3; PDE 4B3) [ND ND ND ND]	SMILES	PDE inhibitor profile (Table 17) [1]	other results
26	47	54	74	–	–	Cc1nc(N2CCCCC2C)c2c(C)c(C(=O)Nc3ccc(F)cc3F)sc2n1 (stereo not drawn) [Compound 58-4]	–	–
14	15	30	20	–	–	COc1cc(NC(=O)c2sc3ncnc(N4CCCCC4C)c3c2C)cc(OC)c1OC (stereo not drawn) [Compound 58-3]	–	Composite Z score, PDE4A1 (PDE4A1): 27.41
60	39	70	84	–	–	Cc1c(C(=O)Nc2ccc3c(c2)OCCO3)sc2ncnc(N3CCc4ccccc4C3)c12 [Compound 58-10]	–	Composite Z score, PDE4A1 (PDE4A1): 32.338
